This note sets out measurements from patent US12687495B2, “Single cell selection and isolation” (ERASMUS UNIVERSITY MEDICAL CENTER ROTTERDAM, priority 2019, dated 2026).

Data set [1] relates to cells. As to the kind of experiment: Cell permeability assay: fluorescence and retention of activated dye in phototagged cells. It counts as cell-based. As to conditions: 15 uM for 15 min, PBS rinse, 405 nm light (1000 J/cm^2), 532 nm excitation; FIG. 10B; listed as phototagging agent. The source says: The unreacted agent was then rinsed away with PBS (phosphate buffered Saline). […] After activation, fluorescence of photoactivated uncaged rhodamine was observed and imaged by 532 nm excitation (200 mW/0.35 cm^2).

Data set [2] is described as follows: UV-Vis absorption spectrum. It counts as physicochemical. The source says:
Without wishing to be bound by theory, the chemical compound and the uncaging schematically proceeds as illustrated in FIG. 12. In a preferred embodiment, the photosensitizer moiety absorbs light of a wavelength from 360 nm-420 nm while the caged fluorophore moiety is essentially insensitive to light of a wavelength >400 nm. This typically means that the absorption coefficient of the photosensitizer as a wavelength of higher than 400 nm is more than 10 times, preferably more than 40 times as high as the absorption coefficient of the caged fluorophore moiety at the same wavelength.

Data set [3] has as its system MCF10A cells. As to the kind of experiment: Uncaging efficiency of caged rhodamine with or without thioxanthone in cells. It counts as cell-based. As to conditions: for photoactivation / fluorescent response of irradiated cells: cells incubated with 15 uM, 405 nm exposure (1000 J/cm^2). As for the experimental part:
FIGS. 11A and 11B illustrate images of cells incubated with a phototagging agent, with and without photosensitizer, respectively.
For example, uncaging efficiency is determined by a relative decrease in the energy or intensity of light needed to uncage the phototagging agent. For example, a wavelength at which the amount of energy or intensity is compared is more than four hundred nanometer, e.g. 405 nm as shown in the comparative example of FIGS. 11A and 11B.
The comparison is carried out by directly measuring uncaging efficiency in biological samples. The described experiment was conducted in mammalian cancer cell lines but can be generalized without loss of relevance to other mammalian cell types. The phototagging agent (caged rhodamine with thioxanthone) at 15 uM was incubated with MCF10A cells for 15 min. The caged moiety was then removed by irradiation with 405 nm CW light at 500-1500 J/cm^2. […] The uncaged rhodamine in the cells was imaged by 532 nm excitation (200 mW/0.35 cm^2).

`COc1cc(COC(=O)N2CCCc3cc4c(cc32)Oc2cc3c(cc2C42OC(=O)c4cc(C(=O)Nc5ccc6sc7ccccc7c(=O)c6c5)ccc42)CCCN3C(=O)OCc2cc(OC)c(OC)cc2[N+](=O)[O-])c([N+](=O)[O-])cc1OC` [chemical compound A]: in data set [1], the “time the uncaged phototagging agent stays inside cells (photoactivated fluorescence observed)” value was “seven”. In addition, in data set [2], the “absorption >400 nm” value was “has absorption >400 nm”. Further, the “light energy at which the caged moiety was removed (uncaging)” value in data set [3] (405 nm CW light, 15 uM agent incubated with MCF10A cells for 15 min, uncaged rhodamine imaged by 532 nm excitation) is 500-1500 J/cm^2. For the same compound, the “uncaging efficiency compared to corresponding caged rhodamine without photosensitizer thioxanthone” value in data set [3] (FIG. 10A, 405 nm) is on record as “more than ten”. Also, the “photoactivation / fluorescent response of irradiated cells” value in data set [3] (listed as caged rhodamine conjugated with thioxanthone) was “a fluorescent response F could be measured”; in data set [3] (listed as phototagging agent), “photoactivated”.
